Converted amounts (≈) assume the structure as drawn.
Assays:
Test in all cases: MIC, broth microdilution growth inhibition
Type in all cases: cell-based
Settings in all cases: Mueller-Hinton broth, 5×10^5 CFU/ml, 37° C., 18 h
E. coli 1850E = tested on: E. coli 1850E
Protocol: (§1) Growth-inhibitory activity was determined on liquid medium by the antibiotic dilution technique using 96-well microtiter system plates containing two-fold dilutions of antibiotic-agent in 0.2 ml. of Mueller-Hinton broth. Plates were inoculated with each test organism to yield a final inoculum of 5×10^5 CFU/ml and were incubated aerobically at 37° C. for 18 h. The MIC was defined as the lowest concentration of antibacterial agent that inhibited development of visible growth in the microdilution wells.

E. hirae ATCC 9790 = tested on: E. hirae ATCC 9790
Protocol: as §1

H. influenzae ATCC 49247 = tested on: H. influenzae ATCC 49247
Protocol: as §1

[1] = tested on: M. catarrhalis ATCC 23246
Protocol: as §1

S. aureus ATCC 29213 = tested on: S. aureus ATCC 29213
Protocol: as §1

S. aureus RN4250 = tested on: S. aureus RN4250
Protocol: as §1

S. aureus RN450 = tested on: S. aureus RN450
Protocol: as §1

S. pneumoniae ATCC 49619 = tested on: S. pneumoniae ATCC 49619
Protocol: as §1

S. aureus ATCC 13709 = tested on: S. aureus ATCC 13709
Protocol: as §1

S. pneumoniae 157E = tested on: S. pneumoniae 157E
Protocol: as §1

E. coli ATCC 25933 = tested on: E. coli ATCC 25933
Protocol: as §1

| SMILES | MIC (E. coli 1850E) [µg/mL] | MIC (E. hirae ATCC 9790) [µg/mL] | MIC (H. influenzae ATCC 49247) [µg/mL] | MIC [1] [µg/mL] | MIC (S. aureus ATCC 29213) [µg/mL] | MIC (S. aureus RN4250) [µg/mL] | MIC (S. aureus RN450) [µg/mL] | MIC (S. pneumoniae ATCC 49619) [µg/mL] | MIC (S. aureus ATCC 13709) [µg/mL] | MIC (S. pneumoniae 157E) [µg/mL] | MIC (E. coli ATCC 25933) [µg/mL] |
| --- | --- | --- | --- | --- | --- | --- | --- | --- | --- | --- | --- |
| CCOC(=O)CNc1cc(N(C)C)c2c(c1O)C(=O)C1=C(O)[C@]3(O)C(=O)C(C(N)=O)=C(O)[C@@H](N(C)C)[C@@H]3C[C@@H]1C2 [Example 1, [4S-(4a,5a,12a)]-4,7-Bis(dimethylamino)-9-[(ethoxycarbonyl)methyl]amino-1,4,4a,5,5a,6,11,12a-octahydro-3,10,12,12a-tetrahydroxy-1,11-dioxo-2-naphtacenecarboxamide] | 32 (≈ 57.3 µM) | 8 (≈ 14.3 µM) | 32 (≈ 57.3 µM) | 4 (≈ 7.16 µM) | 16 (≈ 28.6 µM) | 16 (≈ 28.6 µM) | 16 (≈ 28.6 µM) | 32 (≈ 57.3 µM) |  |  |  |
| CCOC(=O)C(C)Nc1ccc2c(c1O)C(=O)C1=C(O)[C@]3(O)C(=O)C(C(N)=O)=C(O)[C@@H](N(C)C)[C@@H]3[C@@H](O)[C@@H]1[C@H]2C (stereo partly drawn) [Example 2, [4S-(4a,5,5a,6,12a)]-4-(Dimethylamino)-9-[1-(ethoxycarbonyl)ethyl]amino-1,4,4a,5,5a,6,11,12a-octahydro-3,5,10,12,12a-pentahydroxy-6-methyl-1,11-dioxo-2-naphtacenecarboxamide] | 64 (≈ 114 µM) | 0.25 (≈ 0.447 µM) | 32 (≈ 57.2 µM) | 1 (≈ 1.79 µM) |  | 2 (≈ 3.57 µM) | 0.25 (≈ 0.447 µM) | 0.5 (≈ 0.894 µM) | 0.5 (≈ 0.894 µM) | 1 (≈ 1.79 µM) |  |
| CCOC(=O)CNc1ccc2c(c1O)C(=O)C1=C(O)[C@]3(O)C(=O)C(C(N)=O)=C(O)[C@@H](N(C)C)[C@@H]3[C@@H](O)[C@@H]1[C@H]2C [Example 3, [4S-(4a,5,5a,6,12a)]-4-(Dimethylamino)-9-[(ethoxycarbonyl)methyl]amino-1,4,4a,5,5a,6,11,12a-octahydro-3,5,10,12,12a-pentahydroxy-6-methyl-1,11-dioxo-2-naphtacenecarboxamide] | 32 (≈ 58.7 µM) | 1 (≈ 1.83 µM) | 8 (≈ 14.7 µM) | 2 (≈ 3.67 µM) |  | 2 (≈ 3.67 µM) | 0.5 (≈ 0.917 µM) | 0.5 (≈ 0.917 µM) | 1 (≈ 1.83 µM) |  |  |
| C[C@H]1c2ccc(NCC(=O)N(C)C)c(O)c2C(=O)C2=C(O)[C@]3(O)C(=O)C(C(N)=O)=C(O)[C@@H](N(C)C)[C@@H]3[C@@H](O)[C@@H]21 [Example 4, [4S-(4a,5,5a,6,12a)]-4-(Dimethylamino)-9-[(N,N-dimethylaminocarbonyl)methyl]amino-1,4,4a,5,5a,6,11,12a-octahydro-3,5,10,12,12a-pentahydroxy-6-methyl-1,11-dioxo-2-naphtacenecarboxamide] |  |  | 2 (≈ 3.67 µM) |  | 0.5 (≈ 0.918 µM) |  |  | 0.06 (≈ 0.11 µM) |  |  | 2 (≈ 3.67 µM) |

— US7208482B2, “9-aminoacyl tetracycline compounds and methods of use thereof” (Paratek Pharmaceuticals, Inc., priority 2001, dated 2007)
